Experimental data from patent US9499570B2, “Boron containing small molecules” (priority 2010, dated 2016).
“Also recorded” adds a separate entry of the source.

What was measured:
[1] = system: Schistosoma mansoni adult worms; assay: Schistosoma mansoni adult worm phenotype screen in vitro; details: for Adult worm screen phenotype 7 h / Adult worm screen phenotype 24 h / Adult worm screen phenotype 4 d / Adult worm screen phenotype 6 d*: Second Set, 5 uM; for Phenotypes caused by positive control compounds: adult worms
Description: (§1) Puerto Rican isolates of S. mansoni using Biomphalaria glabrata snails and golden hamsters as intermediate and definitive hosts, respectively, were maintained and handled in the University of California-San Francisco Sandler Center for Tropical Medicine. Patent B. glabrata snails (6-8 weeks after exposure to 5-10 infectious miracidia) were induced to shed infective larvae (cercariae) under light stimulus into the surrounding water. Cercariae were washed in rounds of ice-cold water and concentrated through and over sieves of varying pore sizes. They were then mechanically sheared (separation of heads from tails) as described in Colley D G, et al. Exp Parasitol 1974, 35:44-51, in ice-cold Incomplete Medium 169 (as described in Basch P F. J Parasitol 1981, 67:179-185, minus FBS and antibiotics) by passing 15 times through a double headed 22-gauge syringe needle connected to two 10 mL syringes. The resulting cercarial heads (schistosomula) were separated from their tails by swirling in a petri dish. Concentrated schistosomula were added to a sterile 1.5 mL centrifuge tube and allowed to settle over ice. Schistosomula were transferred to a sterile environment and washed 4 times in Incomplete Medium 169 prior to plating.
(§2) Two sets of screening were performed. In the first set, compounds were screened against schistosomula and observations were made at 24 hours, 2 days, 3 days, 4 days, and 6 days. In the second set, compounds were screened against schistosomula with observations at 24 hours, 2 days, 3 days, and 4 days and adult worms at 7 hours, 24 hours, 4 days, and 6 days.
Given the delicacy and size (0.5-1.5 cm in length) of this stage all operations were performed manually by the Sandler Center. 24-well plates were set up with compound (final DMSO concentration=0.5%) containing approximately 5 pairs of worms (S. mansoni has separate sexes) in 2 mL complete Basch medium per well. Plates were maintained at 37° C. in a 5% CO2 atmosphere. All compounds were tested in duplicate with at least two experimental replicates.
(§3) A semi-quantitative and controlled nomenclature for phenotypes that can arise as a result of compound insult to both schistosomula and adults was utilized (Abdulla M H, et al., PLoS Negl Trop Dis 2009, 3:e478). Phenotypes were recorded by visual inspection and on a flexible time basis but at least at 24 h and 4 day time-points in the case of large scale screening. […] To help eliminate bias, two screen analysts scored phenotypes ‘blind’ both to knowledge of the contents of each screening plate and the phenotypes scored by his/her colleague. Upon completing their individual assessments, each analyst's ‘hit sheet’ was then compared to derive a ‘consensus hit sheet’. Discrepancies in analysts' hit sheets were re-evaluated under the microscope to eventually make a consensus hit call.
(§4) Hyper-coiled and coiled represent a verbal description of the visual phenotype as compared to the DMSO control. The + and ++ and +++ means more of the phenotype which preceded it. The − means less of the phenotype which preceded it. Results

[2] = system: Schistosoma mansoni schistosomula; assay: Schistosoma mansoni schistosomula phenotype screen in vitro; details: for Schistosomula (juvenile infective form) worm screen phenotype 2 d / Schistosomula (juvenile infective form) worm screen phenotype 3 d / Schistosomula (juvenile infective form) worm screen phenotype 4 d / Schistosomula (juvenile infective form) worm screen phenotype 24 h: Second Set, 5 uM; for Schistosomula phenotype day 4 / Schistosomula phenotype day 6 / Schistosomula phenotype day 2: First Set; for Phenotypes caused by positive control compounds: schistosomula
Description: as §1, §2
Plates contain 200 schistosomula/well in […] complete Basch medium and were maintained at 37° C. in a 5% CO2 atmosphere. All compounds were tested in duplicate with at least two experimental replicates. Compounds and control compounds were added to the plates using the Biomek FXp using 96-well disposable tips. Final concentration of DMSO in each well was 0.5%.
as §3, §4

Brugia malayi = Brugia malayi in vitro assay, adult female worms; details: 50 uM
Procedure: Adult female worms are shipped from TRS Labs Inc. (Nonglak Supakorndej, Lab Director, 295 Research Dr., Athens, Ga. 30605; 706-549-0764) via Fed Ex. Individual worms are shipped in 2 mls vials with RPMI on Mondays and arrive at the […] Center lab on Tuesday mornings. Individual worms are poured into each well (24-well tissue culture plates) to avoid handling worms since they are very delicate and easily broken. Transport media is removed and replaced with 0.5 mls of RPMI-1640 (25 mM HEPES, 2 g/L NaHCO3, Antibiotic/Antimycotic, 5% HI FBS). Worms are maintained in a 37° C. 5% CO2 incubator. Compounds are added directly to each duplicate well (5 ul of 5 mM for a final concentration of 50 uM). DMSO (5 ul) is used as a negative control and Ivermectin (Sigma) is used as a positive control at 100 uM/well and 20 uM/well. Adult filarial nematodes can shed/give birth to microfilarial worms (mf) during the course of the assay. Wells were reviewed for the presence of mf, and the viability of mf, by visual observation of the well on the last day of observation (Day 7). Plates are examined once a day for 4-7 days. […] If changes are observed, worms are more closely examined under a dissecting microscope.

In the case of `N#Cc1ccc(Oc2ccc3c(c2)COB3O)nc1OC1CCCC1` [2-Cyclopentyloxy-6-(1-hydroxy-1,3-dihydro-benzo[c][1,2]oxaborol-5-yloxy)-nicotinonitrile], the “Adult worm screen phenotype 7 h” value [1] is reported as “O+”, the “Adult worm screen phenotype 24 h” value [1] is reported as “O−” and the “Adult worm screen phenotype 4 d” value [1] is reported as “v, slow, sex; also recorded: sep, on sides”. The “Adult worm screen phenotype 6 d*” value [1] was “Dark, S,; also recorded: Partial D (Partial D=partial killing of worm population)”, the “Schistosomula (juvenile infective form) worm screen phenotype 2 d” value [2] was “O++, R−, and some and deg-M” and the “Schistosomula (juvenile infective form) worm screen phenotype 3 d” value [2] was “O++, R−, and some and deg-M”. For the same molecule, the “Schistosomula (juvenile infective form) worm screen phenotype 4 d” value [2] was “O++, R−,; also recorded: some deg-M”.

With `CC(C)OCCOc1nc(Oc2ccc3c(c2)COB3O)ccc1C#N` [6-(1-hydroxy-1,3-dihydrobenzo[c][1,2]oxaborol-5-yloxy)-2-(4-isopropoxyethoxy)nicotinonitrile] the “Presence and viability of microfilarial worms (mf) Day 7” value (Brugia malayi; trial one) was “mf and alive”, the “Worm activity / phenotype Day 1” value (Brugia malayi; trial one) was “hyper-; also recorded: coiled” and the “Worm activity / phenotype Day 3” value (Brugia malayi; trial one) was “hyper-; also recorded: coiled”. The “Worm activity / phenotype Day 7” value (Brugia malayi; trial one) was 0, and coiled, the “Presence and viability of microfilarial worms (mf) Day 7” value (Brugia malayi; trial two) was “no mf and obs” and the “Worm activity / phenotype Day 1” value (Brugia malayi; trial two) was “hyper-; also recorded: coiled”. For the same molecule, the “Worm activity / phenotype Day 2” value (Brugia malayi; trial two) was “hyper-; also recorded: coiled”, the “Worm activity / phenotype Day 3” value (Brugia malayi; trial two) was 4 (4=highly active (controls)) and the “Worm activity / phenotype Day 7” value (Brugia malayi; trial two) was 0, and coiled.

`N#Cc1ccc(Oc2ccc3c(c2)COB3O)nc1` [6-(1-hydroxy-1,3-dihydrobenzo[c][1,2]oxaborol-5-yloxy)nicotinonitrile] was tested, and the “Adult worm screen phenotype 7 h” value [1] was “O−”, the “Schistosomula phenotype day 4” value [2] was “O−, and R−” and the “Schistosomula (juvenile infective form) worm screen phenotype 24 h” value [2] was “R−, O−”. The “Schistosomula (juvenile infective form) worm screen phenotype 2 d” value [2] was “R−, O−, and some and deg-M”, the “Schistosomula (juvenile infective form) worm screen phenotype 3 d” value [2] was “O, some; also recorded: deg-M” and the “Schistosomula (juvenile infective form) worm screen phenotype 4 d” value [2] was “O, some deg-M”.

With `COc1nc(Oc2cc3c(cc2F)B(O)OC3)ccc1C#N` [6-(6-Fluoro-1-hydroxy-1,3-dihydrobenzo[c][1,2]oxaborol-5-yloxy)-2-methoxynicotinonitrile] the “Adult worm screen phenotype 7 h” value [1] was “O++”, the “Adult worm screen phenotype 24 h” value [1] was “O++ sex sep” and the “Adult worm screen phenotype 4 d” value [1] was “O+, sex sep; also recorded: males dark”. The “Adult worm screen phenotype 6 d*” value [1] was “Dark, Partial D”, the “Schistosomula phenotype day 6” value [2] was “R O and some and partial D” and the “Schistosomula (juvenile infective form) worm screen phenotype 24 h” value [2] was “R, O++,; also recorded: some deg-m”. For the same molecule, the “Schistosomula (juvenile infective form) worm screen phenotype 2 d” value [2] was “O+++, and R−, and some and deg-M”, the “Schistosomula (juvenile infective form) worm screen phenotype 3 d” value [2] was “O+++, and some and deg-M” and the “Schistosomula (juvenile infective form) worm screen phenotype 4 d” value [2] was “O+++, some; also recorded: deg-M”.

In the case of `CC(C)OCCOc1nc(Oc2ccc3c(c2)COB3O)ccc1C#N` [D140, 6-(1-Hydroxy-1,3-dihydrobenzo[c][1,2]oxaborol-5-yloxy)-2-(2-isopropoxyethoxy)nicotinonitrile, reference compound], the “Adult worm screen phenotype 7 h” value [1] is reported as “O++”, the “Adult worm screen phenotype 24 h” value [1] is reported as “O++ sex sep” and the “Adult worm screen phenotype 4 d” value [1] is reported as “O, sex sep,”. For the same molecule, the “Schistosomula (juvenile infective form) worm screen phenotype 24 h” value [2] was “R, O++,; also recorded: some deg-m”, the “Schistosomula (juvenile infective form) worm screen phenotype 2 d” value [2] was “O+++, and R−, and some and deg-M” and the “Schistosomula (juvenile infective form) worm screen phenotype 3 d” value [2] was “O+++, R, and some and deg-M”. The “Schistosomula (juvenile infective form) worm screen phenotype 4 d” value [2] was “O+++, R,; also recorded: some deg-M”.

`CC(=O)CCCOc1nc(Oc2ccc3c(c2)COB3O)ccc1C#N` [D141, 6-(1-hydroxy-1,3-dihydrobenzo[c][1,2]oxaborol-5-yloxy)-2-(4-oxopentyloxy) nicotinonitrile, reference compound] was tested, and the “Adult worm screen phenotype 7 h” value [1] was “O++, and Sex sep (Sex sep=worm pairs have separated) and (violent and motion)”, the “Adult worm screen phenotype 24 h” value [1] was “O++, Sex; also recorded: sep (violent; also recorded: motion)” and the “Adult worm screen phenotype 4 d” value [1] was “O++, sex; also recorded: sep on sides,; also recorded: males dark”. The “Adult worm screen phenotype 6 d*” value [1] was “Dark, S,; also recorded: Partial D (Partial D=partial killing of worm population)”, the “Schistosomula (juvenile infective form) worm screen phenotype 24 h” value [2] was “R, O++,; also recorded: some deg-m” and the “Schistosomula (juvenile infective form) worm screen phenotype 2 d” value [2] was “O+++, and R−, and some and deg-M”. The “Schistosomula (juvenile infective form) worm screen phenotype 3 d” value [2] was “O+++, R, and some and deg-M” and the “Schistosomula (juvenile infective form) worm screen phenotype 4 d” value [2] was “O+++, R,; also recorded: some deg-M”.

With `CC(C)OC(=O)c1ccc(Oc2ccc3c(c2)COB3O)nc1` [Isopropyl 6-(1-hydroxy-1,3-dihydrobenzo[c][1,2]oxaborol-5-yloxy)nicotinate] the “Schistosomula phenotype day 2” value [2] was “O, (O=overactive); also recorded: deg-m”, the “Schistosomula phenotype day 4” value [2] was “O, R, and some and deg-m” and the “Schistosomula phenotype day 6” value [2] was “O, R,; also recorded: Partial D (Partial D=partial killing of worm population)”.

For `CC(=O)NCc1ccc(Oc2ccc3c(c2)COB3O)cc1` [N-[4-(1-Hydroxy-1,3-dihydro-benzo[c][1,2]oxaborol-5-yloxy)-benzy]-acetamide], the “Schistosomula phenotype day 4” value [2] was “D (D=dead)”.

For `O=C(C1CCCCC1)N1CC(=O)N2CCc3ccccc3C2C1` (stereo not shown) [PZQ, reference compound], the “Phenotypes caused by positive control compounds” value (from here on “Phenotypes caused”) [1] was “dose-dependent, rapid and severe phenotypes” and the “Phenotypes caused” value [2] was “dose-dependent, rapid and severe phenotypes”.

With `CCCCOC(=O)c1ccc(Oc2ccc3c(c2)COB3O)nc1` [n-Butyl 6-(1-hydroxy-1,3-dihydrobenzo[c][1,2]oxaborol-5-yloxy)nicotinate] the “Schistosomula phenotype day 2” value [2] was “(strong); also recorded: O, deg-m”, the “Schistosomula phenotype day 4” value [2] was “deg-m,; also recorded: (shrunk); also recorded: O, R,” and the “Schistosomula phenotype day 6” value [2] was “deg-m; also recorded: O, R, D,”.

`CCCOC(=O)c1ccc(Oc2ccc3c(c2)COB3O)nc1` [n-Propyl 6-(1-hydroxy-1,3-dihydrobenzo[c][1,2]oxaborol-5-yloxy)nicotinate] was tested, and the “Schistosomula phenotype day 2” value [2] was “O+ and (shrunk)” and the “Schistosomula phenotype day 6” value [2] was “O, R,; also recorded: Partial D (Partial D=partial killing of worm population)”.

For `O=C(Nc1ccc([N+](=O)[O-])cc1Cl)c1cc(Cl)ccc1O` [niclosamide, reference compound], the “Phenotypes caused” value [1] was “dose-dependent, rapid and severe phenotypes” and the “Phenotypes caused” value [2] was “dose-dependent, rapid and severe phenotypes”.

For `O=C(Nc1ccc(Oc2ccc(Cl)cc2)c(Cl)c1)c1cc(I)cc(I)c1O` [rafoxanide, reference compound], the “Phenotypes caused” value [1] was “dose-dependent, rapid and severe phenotypes” and the “Phenotypes caused” value [2] was “dose-dependent, rapid and severe phenotypes”.
